Data on 29 molecules can be found in patent US11203600B2 (Denali Therapeutics Inc., priority 2017, dated 2021).

This assay addresses GST-hRIPK1 (8-327) (Homo sapiens (Human), UniProt Q13546). As to the kind of experiment: Fluorescent Polarization Binding (FP Binding) assay, RIPK1. Particulars: mean of at least two independent experiments. Here is the method: Fluorescent Polarization Binding (FP Binding) assay (Berger S. B. et al. (2015) Cell Death Discovery, 1: 15009; Maki J. L. et al. (2012) Anal Biochem., 427(2): 164-174) was performed in polystyrene low volume 384-well black plate, at RT in a final volume of 10.1 μl/well using 10 nM of GST-hRIPK1 (8-327) enzyme and 5 nM of fluorescent-labeled ligand (14-(2-{[3-({2-{[4-(cyanomethyl)phenyl]amino]-6-[(5-cyclopropyl-1H-pyrazol-3-yl)amino]-4-pyrimidinyl}amino) propyl}amino}-2-oxoethyl)-16,16,18,18-tetramethyl-6,7,7a,8a,9,10,16,18-octahydrobenzo [2″,3″]indolizino[8″,7″:5′,6′]pyrano [3′,2′:3,4]pyrido[1,2-a]indo1-5-ium-2-sulfonate.
Test compounds were serially diluted in DMSO at 100 fold final concentrations in the assay (1% DMSO final). In each well of a 384-well Plate were dispensed 0.1 μL of compound solution (or DMSO for controls) followed by 5 μL of GST-hRIPK1 (8-327) at twice the final concentrations in assay buffer (50 mM HEPES pH 7.5, 10 mM NaCl, 50 mM MgCl2, 0.02% CHAPS, 0.5 mM DTT and 0.01% Pluronic F127). For negative control the enzyme addition was replaced by assay buffer only.
After addition of 5 μL of fluorescentlabeled ligand at twice the final concentrations in assay buffer, the plate was incubated at RT for […]. At the end, the binding was measured as FP value with the Envision (PerkinElmer) plate reader using filter for an excitation λ=531 nm FP and an emission λ=595 nm FP (S & P-pol). GST-hRIPK1 (8-327) enzyme was produced via Baculovirus expression.
Test compound inhibition was expressed as percent inhibition of internal assay controls. For concentration response curves, normalized data is fit and IC50 determined using XL-fit (IDBS) for Excel. The IC50 values were averaged to determine a mean value, for a minimum of two independent experiments. Results are shown in Table 2 (RIPK1 IC50) values: +++=0.1 nM<IC50<100 nM; ++=100 nM<IC50<1 μM; +=1 μM<IC50).

Setting [1] is: 10 nM GST-hRIPK1 (8-327), 5 nM fluorescent-labeled ligand, RT, 30 min.

Chain of GST-hRIPK1 (8-327) (Q13546 8-327): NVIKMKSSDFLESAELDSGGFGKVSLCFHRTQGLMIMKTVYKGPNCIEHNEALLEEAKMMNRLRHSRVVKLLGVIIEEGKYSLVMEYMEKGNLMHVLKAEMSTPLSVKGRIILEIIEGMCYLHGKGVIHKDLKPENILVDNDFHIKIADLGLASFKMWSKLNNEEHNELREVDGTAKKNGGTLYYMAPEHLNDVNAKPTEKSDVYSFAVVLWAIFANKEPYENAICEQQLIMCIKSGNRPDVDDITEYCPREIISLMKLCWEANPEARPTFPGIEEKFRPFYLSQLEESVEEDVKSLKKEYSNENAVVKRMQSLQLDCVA

In turn, `Cc1ccnc(N2CCC(F)(C(=O)N3CCOc4c(C#N)cncc4C3)CC2)n1` [Example 162, 4-[4-fluoro-1-(4-methylpyrimidin-2-yl)piperidine-4-carbonyl]-3,5-dihydro-2H-pyrido[3,4-f][1,4]oxazepine-9-carbonitrile] had a 50% inhibitory concentration (IC50) under setting [1] of 100 to 1000 nM.
On the same count and under the same terms, in the case of `COC1(C(=O)N2CCOc3c(F)cncc3C2)CCN(c2nccc(OCC(F)F)n2)CC1` [Example 134, [1-[4-(2,2-difluoroethoxy)pyrimidin-2-yl]-4-methoxy-4-piperidyl]-(9-fluoro-3,5-dihydro-2H-pyrido[3,4-f][1,4]oxazepin-4-yl)methanone] it was 100 to 1000 nM; in that of `CC(C)(CSc1ncc(F)cn1)C(=O)N1CCOc2c(C#N)cncc2C1` [Example 181], > 1000 nM.
With `CC(F)C(C)(C)C(=O)N1CCOc2c(C#N)cncc2C1` (single isomer, unassigned) [Example 272, 4-(3-Fluoro-2,2-dimethyl-butanoyl)-3,5-dihydro-2H-pyrido[3,4-f][1,4]oxazepine-9-carbonitrile], where the note is “GST-hRIPK1 (8-327)”, the concentration for half-maximal inhibition (IC50) lay within 0.1 to 100 nM.
Under setting [1], `N#Cc1cncc2c1OCCN(C(=O)C1(F)CCN(c3ncccc3F)CC1)C2` [Example 113, 4-[4-fluoro-1-(3-fluoro-2-pyridyl)piperidine-4-carbonyl]-3,5-dihydro-2H-pyrido[3,4-f][1,4]oxazepine-9-carbonitrile] gave a half-maximal inhibitory concentration (IC50) of 100 to 1000 nM.
On the same count and under the same terms, in the case of `CC(C)(OC(F)(F)F)C(=O)N1CCOc2c(C#N)cncc2C1` [Example 69, 4-[2-methyl-2-(trifluoromethoxy)propanoyl]-3,5-dihydro-2H-pyrido[3,4-f][1,4]oxazepine-9-carbonitrile] it was 0.1 to 100 nM; in that of `CC(C)(C(=O)N1CCOc2ccc(Cl)cc2C1)C(F)F` [Example 10, 1-(7-chloro-2,3-dihydrobenzo[f][1,4]oxazepin-4(5H)-yl)-3,3-difluoro-2,2-dimethylpropan-1-one], 100 to 1000 nM.
Under “GST-hRIPK1 (8-327)”, `CC1(C(=O)N2CCOc3c(C#N)cncc3C2)CCN(c2ncc(F)cn2)CC1F` (single isomer, unassigned) [Example 299, 4-[3-Fluoro-1-(5-fluoropyrimidin-2-yl)-4-methyl-piperidine-4-carbonyl]-3,5-dihydro-2H-pyrido[3,4-f][1,4]oxazepine-9-carbonitrile] displayed an IC50 of 0.1 to 100 nM.
Molecule `CC(C#N)C(C)(C)C(=O)N1CCOc2c(C#N)cncc2C1` (centres unmarked) [Example 72] registered an IC50 under setting [1] of 100 to 1000 nM.
The same measure, in the same setting: in the case of `CC(C)(C(=O)N1CCOc2c(C#N)cncc2C1)C1CC1` [Example 30, 4-(2-cyclopropyl-2-methyl-propanoyl)-3,5-dihydro-2H-pyrido[3,4-f][1,4]oxazepine-9-carbonitrile] it was 0.1 to 100 nM.
In the case of `N#Cc1cncc2c1OCCN(C(=O)C1CCN(c3nccn4ncnc34)CC1(F)F)C2` (centres unmarked) [Example 219, 4-[3,3-difluoro-1-([1,2,4]triazolo[1,5-a]pyrazin-8-yl)piperidine-4-carbonyl]-3,5-dihydro-2H-pyrido[3,4-f][1,4]oxazepine-9-carbonitrile], the IC50 (GST-hRIPK1 (8-327)) was 100 to 1000 nM.
Take `COC(C)(C)C(=O)N1CCOc2c(C#N)cncc2C1` [Example 43, 4-(2-methoxy-2-methyl-propanoyl)-3,5-dihydro-2H-pyrido[3,4-f][1,4]oxazepine-9-carbonitrile]: the IC50 under setting [1] lay within 100 to 1000 nM.
Regarding `Cn1nccc(N2CCC(C(=O)N3CCOc4c(C#N)cncc4C3)[C@@H](F)C2)c1=O` (stereo partly drawn) [Example 224, 4-[(3,4)-trans-3-fluoro-1-(2-methyl-3-oxo-pyridazin-4-yl)piperidine-4-carbonyl]-3,5-dihydro-2H-pyrido[3,4-f][1,4]oxazepine-9-carbonitrile], the IC50 (GST-hRIPK1 (8-327)) was > 1000 nM.
Consider `N#Cc1cncc2c1OCCN(C(=O)C1(F)CCN(c3cccnn3)CC1)C2` [Example 116, 4-(4-fluoro-1-pyridazin-3-yl-piperidine-4-carbonyl)-3,5-dihydro-2H-pyrido[3,4-f][1,4]oxazepine-9-carbonitrile], for which the 50% inhibitory concentration (IC50) under setting [1] fell in the range of 100 to 1000 nM.
As for `CC(C)(C(=O)N1CCOc2c(C#N)cncc2C1)C1CC(n2ccnn2)C1` (centres unmarked) [Example 276, 4-[2-Methyl-2-[3-(triazol-1-yl)cyclobutyl]propanoyl]-3,5-dihydro-2H-pyrido[3,4-f][1,4]oxazepine-9-carbonitrile], where the note is “GST-hRIPK1 (8-327)”, the IC50 was > 1000 nM.
The same measure, in the same setting: in the case of `O=C(C1CCN(c2ncc(F)cn2)CC1)N1CCCc2ccccc2C1` [Example 203, [1-(5-fluoropyrimidin-2-yl)-4-piperidyl]-(1,3,4,5-tetrahydro-2-benzazepin-2-yl)methanone] it was 100 to 1000 nM.
Consider `COc1ccnc(N2CCC(C(=O)N3CCOc4c(C#N)cncc4C3)CC2)n1` [Example 117, 4-[1-(4-methoxypyrimidin-2-yl)piperidine-4-carbonyl]-3,5-dihydro-2H-pyrido[3,4-f][1,4]oxazepine-9-carbonitrile], for which the IC50 under setting [1] fell in the range of 0.1 to 100 nM.
The molecule `CC(C)(C(=O)N1CCOc2c(C#N)cncc2C1)C1CC(n2cc(F)cn2)C1` (centres unmarked) [Example 277, 4-[2-[3-(4-fluoropyrazol-1-yl)cyclobutyl]-2-methyl-propanoyl]-3,5-dihydro-2H-pyrido[3,4-f][1,4]oxazepine-9-carbonitrile] came in with an IC50 (GST-hRIPK1 (8-327)) of 100 to 1000 nM.
The same measure, in the same setting: in the case of `N#Cc1cncc2c1OCCN(C(=O)C1CCN(c3ccnc4c(F)cnn34)CC1F)C2` (single isomer, unassigned) [Example 303, 4-[3-Fluoro-1-(3-fluoropyrazolo[1,5-a]pyrimidin-7-yl)piperidine-4-carbonyl]-3,5-dihydro-2H-pyrido[3,4-f][1,4]oxazepine-9-carbonitrile] it was 100 to 1000 nM; in that of `N#Cc1cncc2c1OCC1(CC1)N(C(=O)C1CCN(c3ncc(F)cn3)CC1)C2` [Example 230, 4-[1-(5-fluoropyrimidin-2-yl)piperidine-4-carbonyl]spiro[2,5-dihydropyrido[3,4-f][1,4]oxazepine-3,1′-cyclopropane]-9-carbonitrile], 100 to 1000 nM.
Molecule `N#Cc1cncc2c1OCCN(C(=O)C1(Cl)CCN(c3ncc(F)cn3)CC1)C2` [Example 177, 4-[4-chloro-1-(5-fluoropyrimidin-2-yl)piperidine-4-carbonyl]-3,5-dihydro-2H-pyrido[3,4-f][1,4]oxazepine-9-carbonitrile] showed a half-maximal inhibitory concentration (IC50) under setting [1] of 0.1 to 100 nM.
The same measure, in the same setting: in the case of `COc1ccc2c(c1)OCCN(C(=O)C(C)(C)C(F)F)C2` [Example 12, 3,3-difluoro-1-(8-methoxy-3,5-dihydro-2H-14-benzoxazepin-4-yl)-2,2-dimethyl-propan-1-one] it was 100 to 1000 nM.
With `N#Cc1cncc2c1OCCN(C(=O)C1CCN(c3ncc(F)cn3)CCO1)C2` (centres unmarked) [Example 231, 4-[4-(5-fluoropyrimidin-2-yl)-1,4-oxazepane-7-carbonyl]-3,5-dihydro-2H-pyrido[3,4-f][1,4]oxazepine-9-carbonitrile], the IC50 (GST-hRIPK1 (8-327)) was > 1000 nM.
In turn, `CC(C)(C(=O)N1CCOc2cccc(F)c2C1)C(F)F` [Example 20, 3,3-difluoro-1-(6-fluoro-2,3-dihydrobenzo[f][1,4]oxazepin-4(5H)-yl)-2,2-dimethylpropan-1-one] registered an IC50 under setting [1] of 0.1 to 100 nM.
On the same count and under the same terms, in the case of `N#Cc1cncc2c1OCCN(C(=O)C1(C(F)F)CCC1)C2` [Example 49, 4-[1-(difluoromethyl)cyclobutanecarbonyl]-3,5-dihydro-2H-pyrido[3,4-f][1,4]oxazepine-9-carbonitrile] it was 0.1 to 100 nM.
For `N#Cc1cncc2c1OCCN(C(=O)C1CCN(c3ncnn4ccnc34)CC1(F)F)C2` (centres unmarked) [Example 218, 4-(3,3-difluoro-1-imidazo[2,1-f][1,2,41triazin-4-yl-piperidine-4-carbonyl)-3,5-dihydro-2H-pyrido[3,4-f][1,4]oxazepine-9-carbonitrile)], under “GST-hRIPK1 (8-327)”, the half-maximal inhibitory concentration (IC50) is 100 to 1000 nM.
Consider `CC(C)(C)C(=O)N1CCOc2c(C#N)cncc2C1` [Example 175, 4-(2,2-dimethylpropanoyl)-3,5-dihydro-2H-pyrido[3,4-f][1,4]oxazepine-9-carbonitrile], for which, under setting [1], the IC50 was in the range of 0.1 to 100 nM.
On the same count and under the same terms, in the case of `CCC(C)(C(=O)N1CCOc2c(C#N)cncc2C1)C(F)(F)F` (centres unmarked) [Example 67, 4-[2-methyl-2-(trifluoromethyl)butanoyl]-3,5-dihydro-2H-pyrido[3,4f][1,4]oxazepine-9-carbonitrile] it was 0.1 to 100 nM; in that of `N#Cc1cncc2c1OCCN(C(=O)C1(F)CCN(c3ncc(F)c(OCC(F)F)n3)CC1)C2` [Example 125, 4-[1-[4-(2,2-difluoroethoxy)-5-fluoro-pyrimidin-2-yl]-4-fluoro-piperidine-4-carbonyl]-3,5-dihydro-2H-pyrido[3,4-f][1,4]oxazepine-9-carbonitrile], 0.1 to 100 nM.

A word on the IC50: it is the concentration that gives 50% inhibition. Lower therefore signals greater potency in that assay.
